Read-outs that look alike come from different tables or passages of the source.
What was measured:
[1] = target: SARS-CoV-2 nsp12/7/8 (RTC) complex (Severe acute respiratory syndrome coronavirus 2, UniProt P0DTD1); assay: biochemical; format: biochemical
[2] = test system: SARS-CoV-2 (BetaCov/Belgium/GHB-03021/2020); assay: in vitro; conditions: African green monkey
SARS-CoV-2 minimal RTC = SARS-CoV-2 minimal RTC (Severe acute respiratory syndrome coronavirus 2, UniProt P0DTD1); format: binding
SARS-CoV-2 = conditions: cited from earlier work
in vitro = conditions: African green monkey
SARS-CoV-2 RTC = SARS-CoV-2 RTC (Severe acute respiratory syndrome coronavirus 2, UniProt P0DTD1); format: biochemical; conditions: competing against RNA or GTP substrates; Lineweaver-Burk plots
[3] = test system: SARS-CoV-2 (BetaCov/Belgium/GHB-03021/2020); assay: microbe, parasite or virus in culture; conditions: Severe acute respiratory syndrome coronavirus 2, Vero C1008, read-out: EC50: compound concentration required to inhibit SARS-CoV-2 replication by 50%
[4] = test system: SARS-CoV-2 (BetaCov/Belgium/GHB-03021/2020)
RNA substrate = assay: Microscale Thermophoresis/Spectral Shift binding assay with RNA substrate (Monolith X); conditions: data not shown
[5] = Compounds cytotoxicity in the Vero E6 cell line; conditions: African green monkey, Vero E6 cells stably expressing GFP, with CP-100356 (P-gp inhibitor), 2 μM
[6] = primer-extension PAGE assay, 150 nM RTC, 5% DMSO, 30 min preincubation at 37 °C, mean and SD of at least 3 independent experiments
[7] = 500 µM compound, Microscale Thermophoresis, Fig. S3
[8] = read-out: IC50: compound concentration required to inhibit by 50% the SARS-CoV-2 RTC enzymatic activity

## CC1(C)CCC(CN2CCN(c3ccc(C(=O)NS(=O)(=O)c4ccc(NCC5CCOCC5)c([N+](=O)[O-])c4)c(Oc4cnc5[nH]ccc5c4)c3)CC2)=C(c2ccc(Cl)cc2)C1 [Venetoclax]
[1]; [6]
  IC50: 2.37 ± 0.42 µM
[2]
  selectivity ratio: > 118
SARS-CoV-2 minimal RTC; [7]
  response amplitude: 3.9
  signal-to-noise ratio: 7.7
SARS-CoV-2 minimal RTC; single concentration of 500 μM of compound
  binding check to SARS-CoV-2 minimal RTC: specific binding
SARS-CoV-2; ref number not printed in the text (probably 27, Milani et al.), read-out: EC50, inhibition of SARS-CoV-2 replication in cell culture
  EC50: 6 µM
In vitro
  CC50: > 100 µM
SARS-CoV-2 RTC
  mode of inhibition of SARS-CoV-2 RdRp: noncompetitive mode of inhibition
[3]
  EC50: 0.85 ± 0.08 µM

## CC(C)C[C@H](NC(=O)OCc1ccccc1)C(=O)N[C@@H](CC1CCNC1=O)C(O)S(=O)(=O)O (some centres unmarked) [GC376]
[4]; read-out: EC50: compound concentration required to inhibit SARS-CoV-2 replication by 50%
  EC50: 0.06 ± 0.03 µM
Vero E6 GFP
  CC50: > 100 µM

## O=C(O)c1c(Cl)c(Cl)c(Cl)c(Cl)c1-c1c2cc(I)c(=O)c(I)c-2oc2c(I)c(O)c(I)cc12 [Rose bengal]
[1]; [6]
  IC50: 0.25 ± 0.0036 µM
[2]
  selectivity ratio: > 546
SARS-CoV-2; ref previous studies (number not given; probably 25, Rubekina et al.), read-out: EC50, inhibition of SARS-CoV-2 replication
  EC50: 0.5 µM
In vitro
  CC50: > 100 µM
SARS-CoV-2 RTC
  mode of inhibition of SARS-CoV-2 RdRp: mixed model of inhibition
[3]
  EC50: 0.18 ± 0.02 µM
RNA substrate
  interaction with RNA substrate: no evidence of interaction

## CC(C)C[C@H](NC(=O)OCc1ccccc1)C(=O)N[C@@H](C[C@@H]1CCNC1=O)C(O)S(=O)(=O)[O-].[Na+] (some centres unmarked) [GC376]
[4]
  SI: selective index, ratio of CC50/EC50: >5,882

## CC(=O)O[C@@H]1CC[C@@]2(C)[C@@H](CC[C@]3(C)[C@@H]2C(=O)C=C2[C@@H]4[C@@H](C)[C@H](C)CC[C@]4(C)CC[C@]23C)[C@@]1(C)C(=O)O [AKBA, 3-O-Acetyl-11-Keto-Beta-Boswellic Acid]
[5]
  CC50 at 24 h: > 100 µM
[1]
  IC50: 4.98 ± 1.44 µM
[2]
  selectivity ratio: > 20.8
[3]
  EC50: 4.81 ± 2.15 µM

## Cc1oc2c(C)c3oc(=O)c(CCC(=O)N4CCC(C(=O)O)(c5ccccc5)CC4)c(C)c3cc2c1-c1ccccc1 [Cmp_4, 4-phenyl-1-[3-(2,5,9-trimethyl-7-oxo-3-phenylfuro[3,2-g]chromen-6-yl)propanoyl]piperidine-4-carboxylic acid]
[1]; [6]
  IC50: 8.21 ± 4.87 µM
[2]
  selectivity ratio: > 38.4
In vitro
  CC50 at 24 h: > 100 µM
[3]
  EC50: 2.61 ± 0.18 µM

## C[C@H]1[C@H](C)CC[C@]2(C(=O)O)CC[C@]3(C)C(=CC[C@@H]4[C@@]5(C)C[C@@H](O)[C@H](O)[C@@](C)(CO)[C@@H]5CC[C@]43C)[C@H]12 [Asiatic Acid]
[1]
  IC50: > 100 µM

## CC1(C)CC[C@]2(C(=O)O[C@@H]3O[C@H](CO)[C@@H](O)[C@H](O)[C@H]3O)CC[C@]3(C)C(=CC[C@@H]4[C@@]5(C)CC[C@H](O[C@@H]6O[C@H](C(=O)O)[C@@H](O)[C@H](O)[C@H]6O[C@@H]6OC[C@@H](O)[C@H](O)[C@H]6O)C(C)(C)[C@@H]5CC[C@]43C)[C@@H]2C1 [Pseudoginsenoside Rt1]
[1]
  IC50: 49.3 ± 5.86 µM

## CC(C)=CCc1c(O)ccc(C(=O)[C@@H]2[C@@H](c3c(O)cc(O)c4c(=O)c(CC=C(C)C)c(-c5ccc(O)cc5O)oc34)C=C(C)C[C@H]2c2ccc(O)cc2O)c1O [Kuwanon H]
[1]; [8]
  IC50: 66.2 ± 1.81 µM

## O=C(c1ccccc1Cl)c1cccnc1-c1nnn(Cc2cc(C(F)(F)F)cc(C(F)(F)F)c2)c1-c1ccncc1 [Tradipitant, reference compound]
[1]; [8]
  IC50: > 100 µM

## Cc1ccccc1N=Cc1c(O)c(O)c(C(C)C)c2cc(C)c(-c3c(C)cc4c(C(C)C)c(O)c(O)c(C=Nc5ccccc5C)c4c3O)c(O)c12 [3-methyl-8-[(2-methylphenyl)iminomethyl]-5-propan-2-yl-2-[1,6,7-trihydroxy-3-methyl-8-[(2-methylphenyl)iminomethyl]-5-propan-2-ylnaphthalen-2-yl]naphthalene-1,6,7-triol]
[1]; [8]
  IC50: 28.4 ± 7.42 µM

## CC1=C2C[C@H]3[C@@H](CC(=O)[C@H]4C[C@@H](O)CC[C@@]43C)[C@@H]2CC[C@]12O[C@@H]1C[C@H](C)CN[C@H]1[C@H]2C [Peimisine]
[1]; [8]
  IC50: > 100 µM

## O=C(COc1ccc2c(-c3ccccc3)cc(=O)oc2c1)Nc1ccc(OCc2ccccc2)cc1 [2-(2-oxo-4-phenylchromen-7-yl)oxy-N-(4-phenylmethoxyphenyl)acetamide]
[1]; [8]
  IC50: 80.5 ± 6.24 µM

## CS(=O)(=O)c1cccc(C[C@H](NC(=O)c2c(Cl)cc3c(c2Cl)CCN(C(=O)c2ccc4ccoc4c2)C3)C(=O)O)c1 [Lifitegrast, reference compound]
[1]; [6]
  IC50: > 100 µM

## CC1(C)[C@@H](OC(=O)CCC(=O)O)CC[C@]2(C)[C@H]3C(=O)C=C4[C@@H]5C[C@@](C)(C(=O)O)CC[C@]5(C)CC[C@@]4(C)[C@]3(C)CC[C@@H]12 [Carbenoxolone, reference compound]
[1]
  IC50: 55.8 ± 8.66 µM

## Cc1cc(Nc2ncnc3ccc(NC4=NC(C)(C)CO4)cc23)ccc1Oc1ccn2ncnc2c1 [Tucatinib, reference compound]
[1]; [6]
  IC50: > 100 µM

## C=CC(=O)N1CCN(c2nc(=O)n(-c3c(C)ccnc3C(C)C)c3nc(-c4c(O)cccc4F)c(F)cc23)[C@@H](C)C1 [Sotorasib, reference compound]
[1]; [6]
  IC50: 47 ± 10.6 µM

Source: article PMC12519464, “Dual-Site Inhibition of SARS-CoV‑2 RNA-Dependent RNA Polymerase by Small Molecules Able to Block Viral Replication Identified through a Computer-Aided Drug Discovery Approach” (ACS Infectious Diseases, 2025)
